Source: US11541057B2, “Thienopyrimidinone NMDA receptor modulators and uses thereof” (Cadent Therapeutics, Inc., priority 2015, dated 2023)

Molecular target: T1, NMDA receptor GRIN1/GRIN2B (NR2B) expressed in HEK293 cells (Homo sapiens, UniProt Q13224)
T1 construct: host or cells: HEK293
Test: Reversal of Ro 25-6981-mediated suppression of the Ca2+ response (fluo-8 fluorescence, FDSS) in HEK293 cells expressing GRIN1 and GRIN2B
Assay type: cell-based
Settings: % reversal=100*(R−Rneg)/(Rpos−Rneg) of Ro 25-6981 suppression of co-agonist (glutamate/glycine) Ca2+ response, 10 min pre-incubation, compound concentration not given
In short: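 HEK293 with stable GRIN1 and tetracycline-induced GRIN2B, loaded with fluo-8 and preincubated 10 min with compound plus Ro 25-6981 and 5,7-dichlorokynurenic acid. Ca2+ response recorded 2 min after glutamate/glycine/CaCl2 co-agonist addition. % reversal = 100*(R−Rneg)/(Rpos−Rneg) from end fluorescence ratios.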

T1 sequence (Q13224 27-1484, other chains not shown): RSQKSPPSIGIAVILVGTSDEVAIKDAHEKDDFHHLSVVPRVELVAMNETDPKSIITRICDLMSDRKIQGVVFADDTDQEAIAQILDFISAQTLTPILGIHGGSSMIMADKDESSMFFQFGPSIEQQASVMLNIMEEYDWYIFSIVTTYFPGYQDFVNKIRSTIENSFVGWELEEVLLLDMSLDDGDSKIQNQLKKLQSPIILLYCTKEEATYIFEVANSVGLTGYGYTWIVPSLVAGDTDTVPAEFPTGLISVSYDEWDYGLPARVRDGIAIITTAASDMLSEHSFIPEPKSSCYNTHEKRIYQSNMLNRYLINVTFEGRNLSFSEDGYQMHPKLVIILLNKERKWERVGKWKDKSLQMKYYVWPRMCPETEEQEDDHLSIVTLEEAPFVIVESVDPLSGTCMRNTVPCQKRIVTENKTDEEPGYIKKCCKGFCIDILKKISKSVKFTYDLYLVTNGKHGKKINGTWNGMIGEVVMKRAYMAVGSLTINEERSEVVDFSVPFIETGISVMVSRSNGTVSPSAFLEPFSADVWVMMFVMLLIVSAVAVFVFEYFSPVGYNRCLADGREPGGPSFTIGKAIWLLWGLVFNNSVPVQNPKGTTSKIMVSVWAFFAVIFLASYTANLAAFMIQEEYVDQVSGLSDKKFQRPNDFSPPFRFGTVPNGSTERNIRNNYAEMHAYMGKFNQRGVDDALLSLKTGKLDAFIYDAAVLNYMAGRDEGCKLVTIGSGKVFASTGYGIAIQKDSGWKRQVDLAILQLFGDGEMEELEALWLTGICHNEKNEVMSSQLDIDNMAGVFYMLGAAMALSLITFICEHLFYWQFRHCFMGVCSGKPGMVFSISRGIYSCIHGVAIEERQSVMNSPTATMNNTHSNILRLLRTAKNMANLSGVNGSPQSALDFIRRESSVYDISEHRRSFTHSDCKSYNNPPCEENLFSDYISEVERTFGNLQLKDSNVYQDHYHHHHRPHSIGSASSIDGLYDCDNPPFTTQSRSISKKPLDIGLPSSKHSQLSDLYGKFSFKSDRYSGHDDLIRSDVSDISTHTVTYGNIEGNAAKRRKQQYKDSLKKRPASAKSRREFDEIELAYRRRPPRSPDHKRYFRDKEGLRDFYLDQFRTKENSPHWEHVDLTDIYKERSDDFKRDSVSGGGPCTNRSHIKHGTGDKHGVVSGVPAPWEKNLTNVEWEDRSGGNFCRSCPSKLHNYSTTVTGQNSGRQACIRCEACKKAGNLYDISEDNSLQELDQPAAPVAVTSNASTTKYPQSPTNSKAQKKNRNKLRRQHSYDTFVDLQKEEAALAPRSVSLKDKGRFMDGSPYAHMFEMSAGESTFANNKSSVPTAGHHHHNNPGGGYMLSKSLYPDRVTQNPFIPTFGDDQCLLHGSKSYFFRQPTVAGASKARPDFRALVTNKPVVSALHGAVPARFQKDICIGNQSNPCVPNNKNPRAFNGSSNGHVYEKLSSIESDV

SMILES	Response Recovered (%)
O=C(Cn1c(C(F)(F)F)nc2scc(-c3ccc(Cl)cc3)c2c1=O)N1CCCC1 [Example 105, 5-(4-chlorophenyl)-3-[2-oxo-2-(pyrrolidin-1-yl)ethyl]-2-(trifluoromethyl)-3H,4H-thieno[2,3-d]pyrimidin-4-one]	−1
O=C(Cn1cnc2sc(-c3ccc(Cl)cc3)cc2c1=O)N1CCCCC1 [Example 75, 6-(4-chlorophenyl)-3-[2-oxo-2-(piperidin-1-yl)ethyl]-3H,4H-thieno[2,3-d]pyrimidin-4-one]	0
O=C(Cn1cnc2scc(-c3cccc(F)c3)c2c1=O)N1CCCC1 [Example 31, 5-(3-fluorophenyl)-3-[2-oxo-2-(pyrrolidin-1-yl)ethyl]-3H,4H-thieno└2,3-d┘pyrimidin-4-one]	3
O=C(Cn1cnc2sc(-c3ccc(Cl)cc3)cc2c1=O)NC1CC1 [Example 76, 2-[6-(4-chlorophenyl)-4-oxo-3H,4H-thieno[2,3-d]pyrimidin-3-yl]-N-cyclopropylacetamide]	34
CCOC(=O)Cn1c(C)nc2scc(-c3ccc(Cl)cc3)c2c1=O [Example 97, Ethyl 2-(5-(4-chlorophenyl)-2-methyl-4-oxothieno[2,3-d]pyrimidin-3(4H)-yl)acetate]	2
O=C(Cn1cnc2scc(-c3ccc(Cl)c(C(F)(F)F)c3)c2c1=O)N1C[C@@H](F)[C@@H](F)C1 [Example 66, 5-[4-chloro-3-(trifluoromethyl)phenyl]-3-{2-[(3R,4S)-3,4-difluoropyrrolidin-1-yl]-2-oxoethyl}-3H,4H-thieno[2,3-d]pyrimidin-4-one]	103
O=C(Cn1cnc2scc(-c3ccc(C(F)(F)F)c(Cl)c3)c2c1=O)N1CCC(F)C1 (centres unmarked) [Example 62]	62
O=C(Cn1cnc2sc(-c3ccc(Cl)cc3)cc2c1=O)N1CCOCC1 [Example 77, 6-(4-chlorophenyl)-3-[2-(morpholin-4-yl)-2-oxoethyl]-3H,4H-thieno[2,3-d]pyrimidin-4-one]	18
O=C(Cn1cnc2scc(-c3ccc(Cl)c(C(F)(F)F)c3)c2c1=O)N1CCCC1 [Example 20, 5-(4-chloro-3-(trifluoromethyl)phenyl)-3-(2-oxo-2-(pyrrolidin-1-yl)ethyl)thieno[2,3-d]pyrimidin-4(3H)-one]	76
O=C(Cn1cnc2scc(-c3ccc(Cl)c(Cl)c3)c2c1=O)N1C[C@@H](F)[C@@H](F)C1 [Example 67, 5-(3,4-dichlorophenyl)-3-{2-[(3R,4S)-3,4-difluoropyrrolidin-1-yl]-2-oxoethyl}-3H,4H-thieno[2,3-d]pyrimidin-4-one]	84
O=C(COn1cnc2scc(-c3ccc(Cl)c(C(F)(F)F)c3)c2c1=O)N1CCCC1 [Example 92, 5-(4-chloro-3-(trifluoromethyl)phenyl)-3-(2-oxo-2-(pyrrolidin-1-yl)ethoxy)thieno[2,3-d]pyrimidin-4(3H)-one]	37
